Results taken from ChEMBL document CHEMBL5360540, “Antitumor effect of 3-(quinolin-2-ylmethylene)-4,6-dimethyl-5-hydroxy-7-azaoxindole down-regulating the Gas6-Axl axis” (Eur J Med Chem, 2023).
The source made the active and inactive calls. The rule behind the calls is not given here.

Legend:
MCF7 [1] = assay: Cytotoxicity against human MCF7 cells assessed as inhibition of cell growth at 30 uM incubated for 48 hrs by MTT assay relative to control; format: functional
PANC-1 [2] = assay: Cytotoxicity against human PANC-1 cells assessed as inhibition of cell growth at 30 uM incubated for 48 hrs by MTT assay relative to control; format: functional
MCF7 [3] = assay: Cytotoxicity against human MCF7 cells assessed as inhibition of cell growth incubated for 48 hrs by MTT assay; format: functional, cell-based; settings: MCF7, 48 h
MDA-MB-231 = assay: Cytotoxicity against human MDA-MB-231 cells assessed as inhibition of cell growth incubated for 48 hrs by MTT assay; format: functional, cell-based; settings: MDA-MB-231, 48 h
HT-29 = assay: Cytotoxicity against human HT-29 cells assessed as inhibition of cell growth incubated for 48 hrs by MTT assay; format: functional, cell-based; settings: HT-29, 48 h
DU-145 = assay: Cytotoxicity against human DU-145 cells assessed as inhibition of cell growth incubated for 48 hrs by MTT assay; format: functional, cell-based; settings: DU-145, 48 h
U-937 = assay: Cytotoxicity against human U-937 cells assessed as inhibition of cell growth incubated for 48 hrs by MTT assay; format: functional, cell-based; settings: U-937, 48 h
A549 = assay: Cytotoxicity against human A549 cells assessed as inhibition of cell growth incubated for 48 hrs by MTT assay; format: functional, cell-based; settings: A549, 48 h
PANC-1 [4] = assay: Cytotoxicity against human PANC-1 cells assessed as inhibition of cell growth incubated for 48 hrs by MTT assay; format: functional, cell-based; settings: PANC-1, 48 h
[5] = Cytotoxicity against CHO-K1 cells assessed as inhibition of cell growth incubated for 48 hrs by MTT assay; format: toxicity, cell-based, Cricetulus griseus; settings: Chinese hamster
[6] = Cytotoxicity against HEK293 cells assessed as inhibition of cell growth incubated for 48 hrs by MTT assay; format: toxicity, cell-based; settings: human
PANC-1 [7] = assay: Antitumor activity against human PANC-1 cells xenografted in BALB/c nude mouse assessed as reduction in tumor growth at 50 mg/kg, ip administered 3 times a week and measured on 30 days by caliper analysis; format: functional, organism-based; settings: time 30.0 day
PANC-1 [8] = assay: Antitumor activity against human PANC-1 cells xenografted in BALB/c nude mouse assessed as animal survival rate at 50 mg/kg, ip administered 3 times a week and measured for 100 days; format: functional; settings: PANC-1, 2400 h, time 100 day
[9] = Safety index, ratio of IC50 for CHO-K1 cells to IC50 for human MCF7 cells; format: toxicity; settings: Chinese hamster (CHO-K1), CHO-K1 cells versus MCF7 cells, read-out: Ratio IC50
[10] = Safety index, ratio of IC50 for CHO-K1 cells to IC50 for human MDA-MB-231 cells; format: toxicity; settings: Chinese hamster (CHO-K1), CHO-K1 cells versus MDA-MB-231 cells, read-out: Ratio IC50
[11] = Safety index, ratio of IC50 for CHO-K1 cells to IC50 for human HT-29 cells; format: toxicity; settings: Chinese hamster (CHO-K1), CHO-K1 cells versus HT-29 cells, read-out: Ratio IC50
[12] = Safety index, ratio of IC50 for CHO-K1 cells to IC50 for human DU-145 cells; format: toxicity; settings: Chinese hamster (CHO-K1), CHO-K1 cells versus DU-145 cells, read-out: Ratio IC50
[13] = Safety index, ratio of IC50 for CHO-K1 cells to IC50 for human U-937 cells; format: toxicity; settings: Chinese hamster (CHO-K1), CHO-K1 cells versus U-937 cells, read-out: Ratio IC50
[14] = Safety index, ratio of IC50 for CHO-K1 cells to IC50 for human A549 cells; format: toxicity; settings: Chinese hamster (CHO-K1), CHO-K1 cells versus A549 cells, read-out: Ratio IC50
[15] = Safety index, ratio of IC50 for CHO-K1 cells to IC50 for human PANC-1 cells; format: toxicity; settings: Chinese hamster (CHO-K1), CHO-K1 cells versus PANC-1 cells, read-out: Ratio IC50
[16] = Safety index, ratio of IC50 for HEK293 cells to IC50 for human MCF7 cells; format: toxicity; settings: HEK293 cells versus MCF7 cells, read-out: Ratio IC50
[17] = Safety index, ratio of IC50 for HEK293 cells to IC50 for human MDA-MB-231 cells; format: toxicity; settings: HEK293 cells versus MDA-MB-231 cells, read-out: Ratio IC50
[18] = Safety index, ratio of IC50 for HEK293 cells to IC50 for human HT-29 cells; format: toxicity; settings: HEK293 cells versus HT-29 cells, read-out: Ratio IC50
[19] = Safety index, ratio of IC50 for HEK293 cells to IC50 for human DU-145 cells; format: toxicity; settings: HEK293 cells versus DU-145 cells, read-out: Ratio IC50
[20] = Safety index, ratio of IC50 for HEK293 cells to IC50 for human U-937 cells; format: toxicity; settings: HEK293 cells versus U-937 cells, read-out: Ratio IC50
[21] = Safety index, ratio of IC50 for HEK293 cells to IC50 for human A549 cells; format: toxicity; settings: HEK293 cells versus A549 cells, read-out: Ratio IC50
[22] = Safety index, ratio of IC50 for HEK293 cells to IC50 for human PANC-1 cells; format: toxicity; settings: HEK293 cells versus PANC-1 cells, read-out: Ratio IC50

Structure (SMILES) | inhibition at 30 µM (MCF7 [1]) | inhibition at 30 µM (PANC-1 [2]) | IC50 (MCF7 [3]) | IC50 (MDA-MB-231) | IC50 (HT-29) | IC50 (DU-145) | IC50 (U-937) | IC50 (A549) | IC50 (PANC-1 [4]) | IC50 at 48 h [5] | IC50 at 48 h [6] | also measured
CCCCC/C=C1\C(=O)Nc2nc(C)c(O)c(C)c21 | 76.9% | 77.5% | 13.9 µM | 12.6 µM | 12.9 µM | 11 µM | 11.5 µM | 7.6 µM | 8.1 µM | 20.9 µM | 6.1 µM | 
Nc1ccn([C@@H]2O[C@H](CO)[C@@H](O)C2(F)F)c(=O)n1 [GEMCITABINE] |  |  |  |  |  |  |  |  |  |  |  | Activity (PANC-1 [7]): inactive; survival at 50 mg/kg (PANC-1 [8]): 80%
COc1ccc(Br)cc1/C=C1\C(=O)Nc2nc(C)c(O)c(C)c21 | 74.7% | 71.8% | 11 µM | 10.5 µM | 25.1 µM | 4.6 µM | 12.6 µM | 10.1 µM | 6.4 µM | 30.1 µM | 19.5 µM | 
Cc1nc2c(c(C)c1O)/C(=C/c1ccc(Cl)cc1)C(=O)N2 | 51.7% | 45% |  |  |  |  |  |  |  |  |  | 
Cc1nc2c(c(C)c1O)/C(=C/c1ccccn1)C(=O)N2 | 28.1% | 29.3% |  |  |  |  |  |  |  |  |  | 
COc1cc(/C=C/C=C2\C(=O)Nc3nc(C)c(O)c(C)c32)ccc1O | 6.9% | 24.5% |  |  |  |  |  |  |  |  |  | 
Cc1nc2c(c(C)c1O)/C(=C/c1ccccc1O)C(=O)N2 | 29.2% | 42.1% |  |  |  |  |  |  |  |  |  | 
COc1ccccc1/C=C1\C(=O)Nc2nc(C)c(O)c(C)c21 | 30.7% | 10.2% |  |  |  |  |  |  |  |  |  | 
Cc1nc2c(c(C)c1O)/C(=C/c1ccc3ccccc3c1)C(=O)N2 | 30.5% | 29% |  |  |  |  |  |  |  |  |  | 
Cc1ccc(/C=C2\C(=O)Nc3nc(C)c(O)c(C)c32)s1 | 53.4% | 30.2% |  |  |  |  |  |  |  |  |  | 
Cc1nc2c(c(C)c1O)/C(=C/c1ccc(N(C)C)cc1)C(=O)N2 | 62.5% | 66.4% | 13.2 µM | 12.1 µM | 36.3 µM | 1.1 µM | > 90 µM | 13.2 µM | 13.8 µM | > 90 µM | > 90 µM | selectivity ratio [9]: > 6.8; selectivity ratio [10]: > 7.4; selectivity ratio [11]: > 2.5; selectivity ratio [12]: > 81.8; selectivity ratio [13]: > 1; selectivity ratio [14]: > 6.8; selectivity ratio [15]: > 6.5; selectivity ratio [16]: > 6.8; selectivity ratio [17]: > 7.4; selectivity ratio [18]: > 2.5; selectivity ratio [19]: > 81.8; selectivity ratio [20]: > 1; selectivity ratio [21]: > 6.8; selectivity ratio [22]: > 6.5
COc1cccc(/C=C2\C(=O)Nc3nc(C)c(O)c(C)c32)c1 | 29.6% | 46.5% |  |  |  |  |  |  |  |  |  | 
Cc1nc2c(c(C)c1O)/C(=C/c1ccccc1[N+](=O)[O-])C(=O)N2 | 23.9% | 27.9% |  |  |  |  |  |  |  |  |  | 
Cc1nc2c(c(C)c1O)/C(=C/C1CCCCC1)C(=O)N2 | 10% | 49.1% |  |  |  |  |  |  |  |  |  | 
Cc1nc2c(c(C)c1O)/C(=C/C(c1ccccc1)c1ccccc1)C(=O)N2 | 78.1% | 81.5% | 6.4 µM | 22.9 µM | 11.5 µM | 8.8 µM | 16.6 µM | 31.5 µM | 7.4 µM | 30.1 µM | 37.8 µM | 
Cc1nc2c(c(C)c1O)/C(=C/c1cccnc1)C(=O)N2 | 78% | 72.8% | 17.4 µM | 9.6 µM | 20 µM | 1.2 µM | 14.5 µM | 13.8 µM | 51.3 µM | 78.5 µM | 33 µM | selectivity ratio [9]: 4.5; selectivity ratio [10]: 8.2; selectivity ratio [11]: 3.9; selectivity ratio [12]: 65.4; selectivity ratio [13]: 5.4; selectivity ratio [14]: 5.7; selectivity ratio [15]: 1.5; selectivity ratio [16]: 1.9; selectivity ratio [17]: 3.4; selectivity ratio [18]: 1.7; selectivity ratio [19]: 27.5; selectivity ratio [20]: 2.3; selectivity ratio [21]: 2.4; selectivity ratio [22]: 0.6
Cc1nc2c(c(C)c1O)/C(=C/c1cccs1)C(=O)N2 | 57.8% | 42.3% |  |  |  |  |  |  |  |  |  | 
Cc1nc2c(c(C)c1O)/C(=C/c1ccncc1)C(=O)N2 | 63.2% | 65.5% | 19.1 µM | > 90 µM | 30.1 µM | 30.8 µM | 34.5 µM | 30.1 µM | 19.1 µM | 57 µM | > 90 µM | 
